# From patent publication US9618513B2, “Compositions and methods for detecting and treating colorectal cancer” (The Regents of the University of Michigan, priority 2014, dated 2017)
# Columns and labels:
# Type in all cases: cell-based, human
# [1] = system: SUZ12, Sox2; experiment: SUZ12 and Sox2 expression after DOT1L/H3K79me2 inhibitor (FIG. 21A); settings: 10 uM
# [2] = system: primary colon cancer cells; experiment: Colon cancer sphere assay, primary colon cancer cells; settings: in the presence of IL-22, inhibitor 10 uM
# Experimental: (A, B) IL-22 is expressed by immune cells in colon cancer tissues. Different cell populations were sorted from colon cancer tissues and IL-22 expression was measured by real time PCR. (5-10 donors, P<0.05). (C) IL-22 is spontaneously released by different immune cell populations in colon cancer tissues. Different CD45^+ immune subsets (10^6/ml) were sorted from colon cancer and blood, and cultured for 12 hours. IL-22 was detected via ELISA. (n=5, *P<0.05). (D, E) IL-22 is expressed by activated CD4^+ T cells in colon cancer tissues. CD45^+ subsets (10^6/ml) were sorted from colon cancer and blood, and were activated with anti-CD3 and anti-CD28 for 2 days. IL-22 was detected with ELISA (D) or intracellular staining (E). (n=5, *P<0.05). […] IL-22 mRNA was detected by real time PCR (F) and protein by ELISA (G). […] IL-22 expression was quantified with real-time PCR in the migrated and non-migrated cells. Results are expressed as the mean relative expression (H). The phenotype of migrated cells, non-migrated cells and control (before migration) was analyzed by FACS (I). […] The mRNA of stem cell core genes was detected by real-time PCR after 6 hours (K) and ALDH activity was detected by FACS after 48 hours (L). […]
# (A) IL-22 induces H3K79me2 in colon cancer cells. […] Total histone modifications were analyzed by western blot. […] Sphere numbers were recorded. […] DOT1L complex gene expression was quantified by real-time PCR. […]
# [3] = system: ALDH1; experiment: ALDH activity by FACS (aldefluor fluorescence); settings: DLD-1, HT29 and two primary colon cancer cell lines, IL-22 24 hours
# From the text: (A), IL-22 is expressed in colon cancer tissues. IL-22 mRNA was detected by real-time PCR in colon cancer tissues and peripheral blood. *P<0.05 compared to blood, 20 colon cancer patients. (B-D), Endogenous IL-22 promotes colon carcinogenesis. Single cells (10^7) isolated from colon cancer tissue were mixed with anti-IL-22 antibody or control mAb, and then subcutaneously injected to NSG mice. Tumor growth (B), incidence (C), and animal survival (D) are shown. (P<0.05 for all, n=5 per group). (E-G) Recombinant IL-22 promotes colon carcinogenesis. DLD-1 colon cancer cells (10^5) were pre-incubated with IL-22 (20 ng/ml) for 1 hour, and then subcutaneously injected to NSG mice. […] ALDH activity was determined by FACS based on aldefluor fluorescence. […] Results are expressed as fold changes of ALDH expression. […] The mRNA of stem cell core gene was detected by real-time PCR (K) and proteins were detected by western blotting (L, M). […]
# (A, B) IL-22 is expressed by immune cells in colon cancer tissues. Different cell populations were sorted from colon cancer tissues and IL-22 expression was measured by real time PCR. […] IL-22 was detected via ELISA. […] IL-22 was detected with ELISA (D) or intracellular staining (E). […] IL-22 mRNA was detected by real time PCR (F) and protein by ELISA (G). […] IL-22 expression was quantified with real-time PCR in the migrated and non-migrated cells. […]
Compound,SUZ12 expression [1],Sox2 expression [1],sphere formation induced by IL-22 [2],aldehyde dehydrogenase (ALDH1) activity [3]
CC(C)N(CCCNC(=O)Nc1ccc(C(C)(C)C)cc1)C[C@H]1O[C@@H](n2ccc3c(N)ncnc32)[C@H](O)[C@@H]1O [EPZ004777],no effect,reduce,suppressed,
"IL-22: recombinant IL-22 (R&D systems), cytokine interleukin-22",,,,increased
